Source: patent US12084430B2, “Tricyclic urea compounds as JAK2 V617F inhibitors” (Incyte Corporation, priority 2022, dated 2024)
Read-outs that look alike come from different tables or passages of the source.

Tests used:
FLT3 = molecular target: T1, FLT3 (Homo sapiens, UniProt P36888); test: FLT3 enzymatic assay; type: biochemical; conditions: 1 mM ATP
T1 sequence (P36888 27-993): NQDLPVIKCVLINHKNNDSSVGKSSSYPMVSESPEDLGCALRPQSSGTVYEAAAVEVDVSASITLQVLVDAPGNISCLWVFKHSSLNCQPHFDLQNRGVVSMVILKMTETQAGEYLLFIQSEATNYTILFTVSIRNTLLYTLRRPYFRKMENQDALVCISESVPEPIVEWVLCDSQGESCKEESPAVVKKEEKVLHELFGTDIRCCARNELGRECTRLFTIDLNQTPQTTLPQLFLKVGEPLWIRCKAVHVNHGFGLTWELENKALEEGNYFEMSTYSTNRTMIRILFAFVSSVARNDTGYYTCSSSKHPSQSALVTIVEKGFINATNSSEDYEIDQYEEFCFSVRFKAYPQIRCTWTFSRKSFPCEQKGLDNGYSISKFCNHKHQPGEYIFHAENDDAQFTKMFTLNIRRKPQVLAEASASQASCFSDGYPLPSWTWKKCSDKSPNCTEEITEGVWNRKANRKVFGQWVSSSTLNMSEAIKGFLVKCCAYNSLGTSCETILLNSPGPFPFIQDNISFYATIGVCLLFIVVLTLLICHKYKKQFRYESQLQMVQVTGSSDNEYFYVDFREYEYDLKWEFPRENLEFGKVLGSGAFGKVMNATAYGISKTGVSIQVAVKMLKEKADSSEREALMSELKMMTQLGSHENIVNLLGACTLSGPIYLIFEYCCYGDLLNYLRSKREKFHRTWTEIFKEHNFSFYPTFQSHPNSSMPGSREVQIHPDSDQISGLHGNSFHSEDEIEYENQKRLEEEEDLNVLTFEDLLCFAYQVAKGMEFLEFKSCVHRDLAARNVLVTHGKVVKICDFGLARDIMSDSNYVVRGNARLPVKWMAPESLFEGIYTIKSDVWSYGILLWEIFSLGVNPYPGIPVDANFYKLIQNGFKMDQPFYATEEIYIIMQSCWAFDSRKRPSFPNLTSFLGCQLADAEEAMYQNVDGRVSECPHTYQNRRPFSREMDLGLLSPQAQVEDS
Method in brief: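 Kinase reaction at room temperature in HEPES 50 mM pH 7.0 with 10 mM MgCl2, 1 mM DTT: 0.011 nM FLT3, 1 mM ATP, 500 nM biotinylated TK substrate, 0.5% DMSO. After 60 min, HTRF read as 665/620 nm ratio; IC50 from fit of percent control activity versus log concentration.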

[1] = molecular target: T2, catalytic domain (JH1, amino acids 826-1132) of human JAK2 (Homo sapiens, UniProt O60674); test: JAK2 LanthaScreen JH1 binding assay; conditions: read-out: JH1 Bind IC50
T2 construct: catalytic domain (JH1, amino acids 826-1132) of human JAK2; FLAG (N); biotin (biotinylated); purchased Carna Biosciences 08-445-20N; host or cells: baculovirus expression system
Method: Example A. JAK2 LanthaScreen […] Binding Assay
JAK2 JH1 binding assay utilizes catalytic domain (JH1, amino acids 826-1132) of human JAK2 expressed as N-terminal FLAG-tagged, biotinylated protein in a baculovirus expression system (Carna Biosciences, Product #08-445-20N). The assay was conducted in black 384-well polystyrene plates in a final reaction volume of 20 μL. JAK2 JH1 (1.5 nM) was incubated with compounds (100 nL serially diluted in DMSO) in the presence of 50 nM fluorescent JAK2-JH1 tracer and 0.5 nM Streptavidin-Tb cryptate (Cisbio Part #610SATLB) in assay buffer (50 mM Tris, pH=7.5, 10 mM MgCl2, 0.01% Brij-35, 0.1% BSA, 1 mM EGTA, 5% Glycerol and 5 mM DTT). Non-specific binding was accessed in the presence of 2 mM ATP. After incubation for 2 hours at 25° C., LanthaScreen signals were read on a PHERAstar FS plate reader (BMG LABTECH). Data was analyzed with IDBS XLfit and GraphPad Prism 5.0 software using a four parameter dose response curve to determine IC50 for each compound.

T2 sequence (O60674 826-1132): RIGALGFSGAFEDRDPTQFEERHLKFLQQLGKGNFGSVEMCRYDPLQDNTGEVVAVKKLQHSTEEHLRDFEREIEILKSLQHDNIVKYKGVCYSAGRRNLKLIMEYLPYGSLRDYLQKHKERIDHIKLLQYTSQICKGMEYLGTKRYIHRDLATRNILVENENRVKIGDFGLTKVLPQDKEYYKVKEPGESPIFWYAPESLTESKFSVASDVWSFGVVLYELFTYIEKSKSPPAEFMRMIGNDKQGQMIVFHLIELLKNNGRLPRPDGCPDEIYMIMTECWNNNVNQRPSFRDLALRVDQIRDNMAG

Row | SMILES | IC50 (FLT3) | IC50 ([1]; Table A) | IC50 ([1]; Table C)
1 | COc1nn(C)cc1-c1[nH]c2ncc3c(c2c1-c1ccc2c(cnn2C)c1)n([C@H]1CC[C@@H](CC#N)CC1)c(=O)n3C [E, reference compound] | 250 to 1250 nM |  | 
2 | [2H]C([2H])([2H])n1cc(-c2[nH]c3ncc4c(c3c2-c2ccc3c(c2)COC3(C)C)n([C@@H]2CC[C@@H](NC(=O)OC)C2)c(=O)n4C)c(F)n1 [Example 11, Methyl ((1R,3R)-3-(8-(1,1-dimethyl-1,3-dihydroisobenzofuran-5-yl)-7-(3-fluoro-1-(methyl-d3)-1H-pyrazol-4-yl)-3-methyl-2-oxo-3,6-dihydroimidazo[4,5-d]pyrrolo[2,3-b]pyridin-1(2H)-yl)cyclopentyl)carbamate] | > 2500 nM | > 1000 nM | > 1000 nM
3 | [2H]C([2H])([2H])n1c(=O)n([C@@H]2CC[C@@H](NC(=O)OC)C2)c2c3c(-c4ccc5c(c4)COC5(C)C)c(-c4cn(CC(F)F)nc4F)[nH]c3ncc21 [Example 12, Methyl ((1R,3R)-3-(7-(1-(2,2-difluoroethyl)-3-fluoro-1H-pyrazol-4-yl)-8-(1,1-dimethyl-1,3-dihydroisobenzofuran-5-yl)-3-(methyl-d3)-2-oxo-3,6-dihydroimidazo[4,5-d]pyrrolo[2,3-b]pyridin-1(2H)-yl)cyclopentyl)carbamate] | > 2500 nM | > 1000 nM | > 1000 nM
4 | [2H]C([2H])([2H])n1cc(-c2[nH]c3ncc4c(c3c2-c2ccc3c(cnn3C(C)C)c2)n([C@@H]2CC[C@@H](NC(=O)OC)C2)c(=O)n4C([2H])([2H])[2H])c(F)n1 [Example 13, Methyl ((1R,3R)-3-(7-(3-fluoro-1-(methyl-d3)-1H-pyrazol-4-yl)-8-(1-isopropyl-1H-indazol-5-yl)-3-(methyl-d3)-2-oxo-3,6-dihydroimidazo[4,5-d]pyrrolo[2,3-b]pyridin-1(2H)-yl)cyclopentyl)carbamate] | > 2500 nM | > 1000 nM | > 1000 nM
5 | [2H]C([2H])([2H])n1cc(-c2[nH]c3ncc4c(c3c2-c2ccc3c(cnn3CC(F)F)c2)n([C@@H]2CC[C@@H](NC(=O)OC)C2)c(=O)n4C([2H])([2H])[2H])c(F)n1 [Example 14, Methyl ((1R,3R)-3-(8-(1-(2,2-difluoroethyl)-1H-indazol-5-yl)-7-(3-fluoro-1-(methyl-d3)-1H-pyrazol-4-yl)-3-(methyl-d3)-2-oxo-3,6-dihydroimidazo[4,5-d]pyrrolo[2,3-b]pyridin-1(2H)-yl)cyclopentyl)carbamate] | 1250 to 2500 nM | > 1000 nM | > 1000 nM
6 | [2H]C([2H])([2H])n1ncc2cc(-c3c(-c4cn(C([2H])([2H])C([2H])([2H])[2H])nc4F)[nH]c4ncc5c(c34)n([C@@H]3CC[C@@H](NC(=O)OC)C3)c(=O)n5C([2H])([2H])[2H])ccc21 [Example 15, Methyl ((1R,3R)-3-(7-(1-(ethyl-d5)-3-fluoro-1H-pyrazol-4-yl)-3-(methyl-d3)-8-(1-(methyl-d3)-1H-indazol-5-yl)-2-oxo-3,6-dihydroimidazo[4,5-d]pyrrolo[2,3-b]pyridin-1(2H)-yl)cyclopentyl)carbamate] | 250 to 1250 nM | > 1000 nM | > 1000 nM
7 | [2H]C([2H])([2H])n1cc(-c2[nH]c3ncc4c(c3c2-c2ccc3c(cnn3C(C)C)c2)n([C@@H]2CC[C@@H](NC(=O)OC)C2)c(=O)n4C)c(F)n1 [Example 16, Methyl ((1R,3R)-3-(7-(3-fluoro-1-(methyl-d3)-1H-pyrazol-4-yl)-8-(1-isopropyl-1H-indazol-5-yl)-3-methyl-2-oxo-3,6-dihydroimidazo[4,5-d]pyrrolo[2,3-b]pyridin-1(2H)-yl)cyclopentyl)carbamate] | 1250 to 2500 nM | > 1000 nM | > 1000 nM
8 | [2H]C([2H])([2H])n1cc(-c2[nH]c3ncc4c(c3c2-c2cc(F)c3c(cnn3C([2H])([2H])[2H])c2)n([C@@H]2CC[C@@H](NC(=O)OC)C2)c(=O)n4C([2H])([2H])[2H])c(F)n1 [Example 17, Methyl ((1R,3R)-3-(8-(7-fluoro-1-(methyl-d3)-1H-indazol-5-yl)-7-(3-fluoro-1-(methyl-d3)-1H-pyrazol-4-yl)-3-(methyl-d3)-2-oxo-3,6-dihydroimidazo[4,5-d]pyrrolo[2,3-b]pyridin-1(2H)-yl)cyclopentyl)carbamate] | 1250 to 2500 nM | > 1000 nM | > 1000 nM
9 | [2H]C([2H])([2H])n1cc(-c2[nH]c3ncc4c(c3c2-c2ccc3c(cnn3CC(F)F)c2)n([C@@H]2CC[C@@H](NC(=O)OC)C2)c(=O)n4C)c(F)n1 [Example 18, Methyl ((1R,3R)-3-(8-(1-(2,2-difluoroethyl)-1H-indazol-5-yl)-7-(3-fluoro-1-(methyl-d3)-1H-pyrazol-4-yl)-3-methyl-2-oxo-3,6-dihydroimidazo[4,5-d]pyrrolo[2,3-b]pyridin-1(2H)-yl)cyclopentyl)carbamate] | 1250 to 2500 nM | > 1000 nM | > 1000 nM
10 | [2H]C([2H])([2H])n1c(=O)n([C@@H]2CC[C@@H](NC(=O)OC)C2)c2c3c(-c4ccc5c(c4)COC5(C)C)c(-c4cn(C([2H])([2H])C([2H])([2H])[2H])nc4F)[nH]c3ncc21 [Example 19, Methyl ((1R,3R)-3-(8-(1,1-dimethyl-1,3-dihydroisobenzofuran-5-yl)-7-(1-(ethyl-d5)-3-fluoro-1H-pyrazol-4-yl)-3-(methyl-d3)-2-oxo-3,6-dihydroimidazo[4,5-d]pyrrolo[2,3-b]pyridin-1(2H)-yl)cyclopentyl)carbamate] | > 2500 nM | > 1000 nM | > 1000 nM
11 | [2H]C([2H])([2H])n1c(=O)n([C@@H]2CC[C@@H](NC(=O)OC)C2)c2c3c(-c4ccc5c(c4)COC5(C)C)c(-c4cn(CC)nc4F)[nH]c3ncc21 [Example 20, Methyl ((1R,3R)-3-(8-(1,1-dimethyl-1,3-dihydroisobenzofuran-5-yl)-7-(1-ethyl-3-fluoro-1H-pyrazol-4-yl)-3-(methyl-d3)-2-oxo-3,6-dihydroimidazo[4,5-d]pyrrolo[2,3-b]pyridin-1(2H)-yl)cyclopentyl)carbamate] | > 2500 nM | > 1000 nM | > 1000 nM
12 | [2H]C([2H])([2H])n1ncc2cc(-c3c(-c4cn(C([2H])(C([2H])([2H])[2H])C([2H])([2H])[2H])nc4F)[nH]c4ncc5c(c34)n([C@@H]3CC[C@@H](NC(=O)OC)C3)c(=O)n5C([2H])([2H])[2H])ccc21 [Example 21, Methyl ((1R,3R)-3-(7-(3-fluoro-1-(propan-2-yl-d7)-1H-pyrazol-4-yl)-3-(methyl-d3)-8-(1-(methyl-d3)-1H-indazol-5-yl)-2-oxo-3,6-dihydroimidazo[4,5-d]pyrrolo[2,3-b]pyridin-1(2H)-yl)cyclopentyl)carbamate] | 1250 to 2500 nM | > 1000 nM | > 1000 nM
